# Values of other authors in patent publication US20190275119A1, “PROOXIDANT CANCER CHEMO-SUPPRESSORS AND CHEMO-PROTECTORS AND METHODS OF USE RELATED THERETO” (priority 2016, published 2019).
# Tested on: tumor cells
# Conditions: low concentrations (about 10 μM)
smiles,measurement,value
"O=CC=Cc1ccccc1OC(=O)c1ccccc1 [BCA, 2′-benzoyl-oxycinnamaldehyde]",growth inhibition and apoptosis of tumor cells,inhibit growth and induce apoptosis of tumor cells
"O=CC=Cc1ccccc1O [HCA, 2′-hydroxycinnamaldehyde]",growth inhibition and apoptosis of tumor cells,inhibit growth and induce apoptosis of tumor cells
